Measurements taken from US10010520B2, “Combined application of isothiocyanate compound and anti-cancer medicine” (JC (WUXI) COMPANY, INC., priority 2013, dated 2018).
pIC50: −log10 of the molar value. “And” between values parts separate entries of the source, which are not always exact repeats. Equal entries are not always repeated. Where two headings read alike, the source gives them in different places. One block for each compound: values may come before it.

Columns and labels:
LNCaP cells = experiment: CellTiter-Glo cell viability, drugs alone or in combination, LNCaP cells; format: cell-based, human; conditions: LNCaP cells, 72 hrs
Experimental: (§1) Cell culture: Androgen-dependent human prostate cancer cells LNCaP, from Shanghai Medicilon Ltd., were placed in a 37° C., 5% CO2 cell incubator, and were cultured in RPMI1640 culture medium with 10% FBS. Androgen-independent human prostate cancer cells DU145, PC-3, from Shanghai Medicilon Ltd., were placed in a 37° C., 5% CO2 cell incubator, and were cultured in F12 culture medium with 10% FBS.
(§2) isothiocyanates or derivatives thereof and DNA-effecting or influencing anticancer drugs, kinase-inhibiting anticancer drugs or hormonal anticancer drugs for endocrine therapy were administered separately or in combination to cancer cells. Cells were seeded into 384-well plates, and cultured for 24 hours in a CO2 incubator. Drugs were dissolved in DMSO and diluted to 9 concentration-gradients in 96 well plates, and then added to corresponding cells in 384-well plates, in which the concentrations of DMSO in 384 well plates were less than 1%. Triplicate wells were set for each concentration. After administration, the cells were cultured in the CO2 incubator for another 72 hrs, and afterwards, cell viability was tested by using CellTiter-Glo® reagent and luminescence detector. And IC50 values of each administration group were calculated.
(§3) CI value was calculated by the following formula: CI=(Am)50/(As)50+(Bm)50/(Bs)50,
(§4) Triplicate wells were set for each co-administration cell well.
(§5) After administration, cells were cultured in the CO2 incubator for another 72 hrs, and afterwards, cell viability was tested by using CellTiter-Glo® reagent and luminescence detector. Curves were plotted according to concentrations or logarithm concentrations of drug A vs cell inhibition rate in the corresponding cell well, and IC50, i.e. (Am)50 was calculated.
(§6) 9 concentration gradients of drug A were set (A1, A2, A3, A4, A5, A6, A7, A8, A9), and administrated alone to the corresponding cells in the 384 well plate, and triplicate wells were set for each administration concentration. After administration, the cells were cultured in the CO2 incubator for another 72 hrs, and afterwards, cell viability was tested by using CellTiter-Glo® reagent and luminescence detector. Curves were plotted according to concentration or logarithm concentration of drug A vs the cell inhibition rate in the corresponding cell well, and IC50, i.e. (As)50 was calculated.
(§7) After administration, the cells were cultured in the CO2 incubator for another 72 hrs, and afterwards, cell viability was tested by using CellTiter-Glo® reagent and luminescence detector.

DU145 cells = experiment: CellTiter-Glo cell viability, drugs alone or in combination, DU145 cells; format: cell-based, human
Experimental: as §1, §2, §3, §4, §5, §6, §7

PC-3 cells = experiment: CellTiter-Glo cell viability, drugs alone or in combination, PC-3 cells; format: cell-based; conditions: Homo sapiens, 72 hrs
Experimental: as §1
isothiocyanates or derivatives thereof and DNA-effecting or influencing anticancer drugs, kinase-inhibiting anticancer drugs or hormonal anticancer drugs for endocrine therapy were administered separately or in combination to cancer cells. […] After administration, the cells were cultured in the CO2 incubator for another 72 hrs, and afterwards, cell viability was tested by using CellTiter-Glo® reagent and luminescence detector. And IC50 values of each administration group were calculated.
CI value was calculated by the following formula: CI=(Am)50/(As)50+(Bm)50/(Bs)50, […]
as §5, with “calculated. […]” for “calculated.”

HeLa cells = experiment: CellTiter-Glo cell viability, drugs alone or in combination, HeLa cells; format: cell-based, human
Experimental: as §2, §3, §4, §5, §6, §7

[1] = test system: human leukemia HL-60 cells; experiment: CellTiter-Glo cell viability, drugs alone or in combination, HL-60 cells; format: cell-based; conditions: read-out: (As)50, IC50 of drug A when used alone
Experimental: as §2, §3, §4, §5, §6, §7

[2] = test system: human kidney cancer cells 786-O; experiment: CellTiter-Glo cell viability, drugs alone or in combination, 786-O cells; conditions: 786-0, 72 h, read-out: (As)50, IC50 of drug A when used alone, 786-O cells, 72 hrs
[3] = test system: Human breast cancer MDA-MB-231 cells; experiment: CellTiter-Glo cell viability, drugs alone or in combination, MDA-MB-231 cells; conditions: 72 hrs
Saos-2 cells = experiment: CellTiter-Glo cell viability, drugs alone or in combination, Saos-2 cells; format: cell-based, human; conditions: Saos-2 cells, 72 hrs
Experimental: as §2, §3, §4, §5, §6, §7

[4] = test system: pancreatic cancer cells PANC-1; experiment: CellTiter-Glo cell viability, drugs alone or in combination, PANC-1 cells; format: cell-based, human; conditions: PANC-1 cells, 72 hrs
Experimental: as §2, §3, §4, §5, §6, §7

HT29 cells = experiment: CellTiter-Glo cell viability, drugs alone or in combination, HT29 cells; conditions: Homo sapiens, HT-29, 72 h
Experimental: After administration, cells were cultured in the CO2 incubator for another 72 hrs, and afterwards, cell viability was tested by using CellTiter-Glo® reagent and luminescence detector. Curves were plotted according to concentrations or logarithm concentrations of drug A vs cell inhibition rate in the corresponding cell well, and IC50, i.e. (Am)50 was calculated. […]

SK-MEL-28 cells = experiment: CellTiter-Glo cell viability, drugs alone or in combination, SK-MEL-28 cells; format: cell-based; conditions: Homo sapiens, 72 hrs
Experimental: as §2, §3, §4
as §5, with “calculated. […]” for “calculated.”

OVCAR-3 cells = experiment: CellTiter-Glo cell viability, drugs alone or in combination, OVCAR-3 cells; conditions: 72 hrs
Jurkat E6-1 cells = experiment: CellTiter-Glo cell viability, drugs alone or in combination, Jurkat E6-1 cells; format: cell-based, human; conditions: Jurkat E6-1 cells, 72 hrs, read-out: (As)50, IC50 of drug A when used alone
Experimental: as §2, §3, §4, §5, §6, §7

[5] = test system: human gastric cancer AGS cells; experiment: CellTiter-Glo cell viability, drugs alone or in combination, AGS cells
U251 cells = experiment: CellTiter-Glo cell viability, drugs alone or in combination, U251 cells; conditions: Homo sapiens, U-251, 72 h, read-out: (As)50, IC50 of drug A when used alone, U251 cells; 72 hrs
A549 cells = experiment: CellTiter-Glo cell viability, drugs alone or in combination, A549 cells; format: cell-based, human
Experimental: as §2, §3, §4, §5, §6, §7

[6] = Homo sapiens, LNCaP, 72 h, read-out: (Bs)50, IC50 of drug B when used alone
[7] = Homo sapiens, DU-145, 72 h, read-out: (Bs)50, IC50 of drug B when used alone
[8] = read-out: (Bs)50, IC50 of drug B when used alone
[9] = Homo sapiens, HeLa, 72 h, read-out: (As)50, IC50 of drug A when used alone
[10] = Homo sapiens, LNCaP, 72 h, read-out: (As)50, IC50 of drug A when used alone
[11] = Homo sapiens, MDA-MB-231, 72 h, read-out: (As)50, IC50 of drug A when used alone, MDA-MB-231 cells
[12] = Homo sapiens, SAOS-2, 72 h, read-out: (As)50, IC50 of drug A when used alone
[13] = Homo sapiens, PANC-1, 72 h, read-out: (As)50, IC50 of drug A when used alone
[14] = read-out: (As)50, IC50 of drug A when used alone
[15] = 72 hrs, read-out: (As)50, IC50 of drug A when used alone
[16] = Homo sapiens, OVCAR-3, 72 h, read-out: (Bs)50, IC50 of drug B when used alone, OVCAR-3 cells
[17] = Homo sapiens, AGS, 72 h, read-out: (Bs)50, IC50 of drug B when used alone, AGS cells
[18] = Homo sapiens, A549, 72 h, read-out: (Bs)50, IC50 of drug B when used alone

pIC50 (LNCaP cells; [6]): 4.67
pIC50 (DU145 cells; [7]): 4.43
pIC50 (PC-3 cells; [8]): 4.00
SMILES: C[C@]12CC[C@H](O)CC1=CC[C@@H]1[C@@H]2CC[C@]2(C)C(c3cccnc3)=CC[C@@H]12 [Abiraterone, abiraterone, reference compound]

SMILES: S=C=NCc1ccccc1 [Benzyl isothiocyanate, benzyl isothiocyanate]
pIC50 (HeLa cells; [9]): 4.83
pIC50 ([1]; Homo sapiens, HL-60, 72 h): 4.94
pIC50 [2]: 4.88
pIC50 (LNCaP cells; [10]): 4.73
pIC50 [3, 11]: 4.94
pIC50 (Saos-2 cells; [12]): 4.84
pIC50 [4, 13]: 4.63

pIC50 (LNCaP cells; [6]): 4.14
pIC50 (LNCaP cells; [8]): 4.15
pIC50 (DU145 cells; [7]): 3.89
SMILES: CC(O)(CS(=O)(=O)c1ccc(F)cc1)C(=O)Nc1ccc(C#N)c(C(F)(F)F)c1 (stereo not drawn) [Bicalutamide, bicalutamide, reference compound]

pIC50 (DU145 cells; [7]): 7.58
SMILES: CO[C@H]1C(=O)[C@]2(C)[C@@H](OC)C[C@H]3OC[C@@]3(OC(C)=O)[C@H]2[C@H](OC(=O)c2ccccc2)[C@]2(O)C[C@H](OC(=O)[C@H](O)[C@@H](NC(=O)OC(C)(C)C)c3ccccc3)C(C)=C1C2(C)C [Cabazitaxel]

pIC50 (HT29 cells; [8]): < 4.00
SMILES: Nc1nc2c(c(=O)[nH]1)N(C=O)C(CNc1ccc(C(=O)N[C@@H](CCC(=O)O)C(=O)O)cc1)CN2 (stereo partly drawn) [Leucovorin, reference compound]

SMILES: S=C=NCCc1ccccc1 [Phenethyl isothiocyanate]
pIC50 (SK-MEL-28 cells; [14]): 4.49
pIC50 (OVCAR-3 cells; read-out: (As)50, IC50 of drug A when used alone, OVCAR-3 cells): 4.50 and 5.01
pIC50 (HeLa cells; [9]): 4.79
pIC50 ([1]; 72 hrs): 5.18
pIC50 ([1]; Homo sapiens, HL-60, 72 h): 5.20
pIC50 [2]: 4.80
pIC50 (LNCaP cells; [10]): 4.69
pIC50 (Jurkat E6-1 cells; Homo sapiens, Jurkat E6.1, 72 h): 4.92
pIC50 (Jurkat E6-1 cells): 4.93 and 4.92 and 4.94
pIC50 (DU145 cells; [15]): 4.71
pIC50 ([5]; Homo sapiens, AGS, 72 h, read-out: (As)50, IC50 of drug A when used alone, AGS cells): 4.83
pIC50 ([5]; read-out: (As)50, IC50 of drug A when used alone, AGS cells, 72 hrs): 4.93
pIC50 [3, 11]: 4.60
pIC50 (U251 cells): 4.68
pIC50 (Saos-2 cells; [12]): 4.69
pIC50 (HT29 cells; [14]): 4.54
pIC50 [4, 13]: 4.71
pIC50 (A549 cells; [15]): 4.65
pIC50 (A549 cells; Homo sapiens, A549, 72 h, read-out: (As)50, IC50 of drug A when used alone): 4.66
pIC50 (PC-3 cells; [14]): 4.28

pIC50 (SK-MEL-28 cells; [8]): 5.92
SMILES: CCCS(=O)(=O)Nc1ccc(F)c(C(=O)c2c[nH]c3ncc(-c4ccc(Cl)cc4)cc23)c1F [Vemurafenib, reference compound]

pIC50 (OVCAR-3 cells; [16]): 5.76
pIC50 [5, 17]: 7.27
SMILES: COc1cccc2c1C(=O)c1c(O)c3c(c(O)c1C2=O)C[C@@](O)(C(=O)CO)C[C@@H]3O[C@H]1C[C@H](N)[C@H](O)[C@H](C)O1 [adriamycin, reference compound]
pIC50 (Saos-2 cells; Homo sapiens, SAOS-2, 72 h, read-out: (Bs)50, IC50 of drug B when used alone): 6.05
pIC50 (Saos-2 cells; [8]): 6.24

SMILES: N.N.[Cl][Pt][Cl] [cisplatin, Cisplatin, reference compound]
pIC50 (OVCAR-3 cells; read-out: (Bs)50, IC50 of drug B when used alone, OVCAR-3 cells): 4.69
pIC50 (HeLa cells; 72 hrs, read-out: (Bs)50, IC50 of drug B when used alone): 4.48

pIC50 [5, 17]: 8.01
pIC50 ([3]; read-out: (Bs)50, IC50 of drug B when used alone, MDA-MB-231 cells): 6.41
SMILES: CC(=O)O[C@@]12CO[C@@H]1C[C@H](O)[C@@]1(C)C(=O)[C@H](O)C3=C(C)[C@@H](OC(=O)[C@H](O)[C@@H](NC(=O)OC(C)(C)C)c4ccccc4)C[C@@](O)([C@@H](OC(=O)c4ccccc4)[C@H]21)C3(C)C [docetaxel, reference compound]

pIC50 (OVCAR-3 cells; [16]): 4.05
pIC50 [4, 8]: 4.49
pIC50 (A549 cells; [18]): 5.02
SMILES: Nc1ccn([C@@H]2O[C@H](CO)[C@@H](O)C2(F)F)c(=O)n1 [gemcitabine, Gemcitabine, reference compound]

pIC50 (A549 cells; [18]): 7.10
SMILES: CN(Cc1cnc2nc(N)nc(N)c2n1)c1ccc(C(=O)N[C@@H](CCC(=O)O)C(=O)O)cc1 [methotrexate, reference compound]
